The text below walks through data of US20120329761A1, “USE OF TIGECYCLINE FOR TREATMENT OF CANCER” (UNIVERSITY HEALTH NETWORK, priority 2010, published 2012).

In data set [1] the test system is Cox-1, Cox-2, and Cox-4 mRNA. The data set is described as follows: Quantitative RT-PCR of Cox mRNA. The settings on record: TEX and primary AML cells, 2.5 μM and 5 μM. The data set is classed as cell-based, human. As for the experimental part: (§1) FIG. 4. […] (A) Cells from TEX, OCI-AML2 and two primary AML patients were treated with increasing concentrations (2.5 μM and 5 μM) of tigecycline for 36 and 48 hours of tigecycline. Total proteins were extracted and analyzed by western blotting for Cox-1, Cox-2, Cox-4, grp78, XIAP, actin and tubulin. (B) TEX and AML patient cells were treated with increasing concentrations (2.5 μM and 5 μM) of tigecycline. Cox-1, Cox-2, and Cox-4 mRNA expression relative 18S was determined by quantitative RT-PCR. Data is shown as mean±SD. (C) TEX cells were treated with increasing concentrations of tigecycline and chloramphenicol (CAP) for 72 hours. Complex I, II and IV enzyme activity relative to citrate synthase activity was determined as described in materials and methods. (D) Cells from TEX, primary AML patients, and normal donors were treated with increasing concentrations of tigecycline. Mitochondrial membrane potential (Δψ) was determined by staining cells with JC-1 dye, and flow cytometry analysis (Red/Green ratio). Reactive oxygen species generation (ROS) was determined by staining with h2-DCFDA and Dihydroethidium (DHE).

Data set [2] is described as follows: PK study in mice, single dose i.p. The data set is classed as in vivo. The settings on record: mouse, serum, ip, single dose 50 mg/kg i.p.
Another data set deals with solid tumour cell lines. Briefly: Cell growth and viability, MTS assay, 72 hours. It is filed as cell-based. As for the experimental part:
(§2) FIG. 1. […] (A) TEX and (B) M9-ENL1 cells were plated in 96-well plates and drugs were added to the wells (5 μL per well) for final concentrations of 10 μM (shown) and 1 μM. Cell growth and viability was measured at 48 hours (M9-ENL-1) and 72 hours (TEX) by MTS assay. Cell viability is shown for each compound as a percent of cells treated with DMSO alone. (C) Leukemia, (D) myeloma, and (E) solid tumor cell lines were seeded in 96-well plates and then treated with increasing concentrations of tigecycline. Cell growth and viability was measured at 72 hours by MTS assay. Cell viability is expressed as mean percentage plus or minus SD (n=3) relative to vehicle-treated cells. […] Cell viability was measured at 72 hours by MTS assay. Cell viability is expressed as mean percentage plus or minus SD (n=3) relative to vehicle-treated cells.
(§3) Human leukemia (OCI-AML2, HL60, U937) cell lines were maintained in RPMI 1640 medium. Myeloma (LP-1, KMS11, 8226, JJN3, OP-M2) cell lines were maintained in Iscove's media. Ovarian (OVCAR), prostate (PC3), and lung alveolar (A549) cell lines were maintained in RPMI 1640 medium. Media was supplemented with 10% fetal calf serum (FCS), […] (all from Hyclone, Logan, Utah). TEX cells were maintained in IMDM, 15% FBS, 2 mM L-glutamine, 1%, penicillin-streptomycin, 20 ng/mL SCF, 2 ng/mL IL-3. M9-ENL1 cells were maintained in alpha-MEM, 20% FBS, 5% human plasma, 2 mM L-glutamine, 1%, penicillin-streptomycin, 100 ng/mL SCF, 10 ng/mL IL-3, 5 ng/mL IL-7, and 5 ng/mL FLT3L. All cells were incubated at 37° C. in a humidified air atmosphere supplemented with 5% CO2.
(§4) Cell growth and viability was assessed by the MTS assay (Promega, Madison, Wis.) according to the manufacturer's instructions. Apoptosis and cell death was measured by Annexin V-fluoroscein isothiocyanate (FITC; Biovision Research Products, Mountain View, Calif.), propidium iodide staining and flow cytometry according to the manufacturer's instructions and as previously described^30.

For the next data set, the system named is leukemia cell lines. Briefly: Cell growth and viability, MTS assay, 72 hours. It is filed as cell-based. The settings on record: tested leukemia cell lines. The protocol:
as §2, §3, §4
On the technique in general: Tetrazolium dyes change colour on reduction, which living cells bring about.

Another data set concerns myeloma cell lines. The data set is described as follows: Cell growth and viability, MTS assay, 72 hours. The data set is classed as cell-based. As for the experimental part:
as §2, §3, §4

For data set [3], the system named is primary normal hematopoietic cells (PBSC). Briefly: Cell death by Annexin V staining, 48 hours. The settings on record: normal PBSC from G-CSF mobilized donors, n=5, 48 hours. It is filed as cell-based, human. The protocol:
(§5) FIG. 2. Tigecycline induces cell death and inhibits clonogenic growth in primary AML cells preferential over normal hematopoietic cells. Mononuclear cells from peripheral blood of leukemia patients (blast count >80%) and normal G-CSF expanded donors was treated with increasing concentrations of tigecycline for 48 hours. Cell viability was measured by Annexin-PI flow cytometry staining. Cell viability is expressed as a mean percentage plus or minus SD (n=3) relative to DMSO-treated cells. Mononuclear cells from primary AML patient samples (A, B) and normal peripheral blood cells (C) were plated in methylcelluose with 5 μM of Tigecycline. (D) Colony forming units were counted at 7 days (AML) and 14 days (Normal) post plating. Percent colony formation is represented compared to DMSO-treated plated cells.
(§6) Primary human acute myeloid leukemia (AML) samples were isolated from fresh peripheral blood samples of consenting patients with AML. Similarly, primary normal hematopoietic cells were obtained from healthy consenting volunteers donating peripheral blood […] (PBSC) for stem cell transplantation. The mononuclear cells were isolated from the samples by Ficoll density centrifugation. Primary cells were cultured at 37° C. in IMDM supplemented with 20% FCS, 1 mM of L-glutamine and appropriate antibiotics. […]
as §4
(§7) Given the cytotoxicity of tigecycline towards leukemia cell lines, the ability of tigecycline to induce cell death in primary acute myeloid leukemia (AML) patient samples and normal hematopoietic cells was compared and evaluated. […] After incubation, cell viability was measured by Annexin V staining.

Data set [4] has as its system primary AML patient samples. Briefly: Cell death by Annexin V staining, 48 hours. It is filed as cell-based, human. The protocol: as §5, §6, §4, §7
For data set [5], the system named is TEX cells. Briefly: Apoptosis by Annexin V flow cytometry. The data set is classed as cell-based, human. The conditions noted are these: over time. As for the experimental part: as §2, §4
(In flow cytometry, cells or beads pass a laser one at a time.)

The test system of data set [6] is bacterial protein synthesis. The settings on record: cited from earlier work.
The test system of data set [7] is TEX cells. Briefly: ROS generation, DCF-DA and DHE staining. It is filed as cell-based, human. The conditions noted are these: time-points up to 24 hours. The protocol:
as §1
A byproduct of the mitochondrial enzyme activities of the electron transport chain is the generation of reactive oxygen species (ROS). […] Therefore, the role of tigecycline on ROS generation in leukemia cells by analyzing hydrogen peroxide ions (H2O2) using a dichlorofluorescein dye (DCF-DA), and superoxide anions using dihydroethidium (DHE) was examined.

For data set [8] the following is noted: rat, in vivo, 30 mg/kg/day; cited from earlier work.

The structures appear in SMILES notation. A value given as a limit tells only on which side of the number the result lay.

As usually defined, the Tmax is the time from dosing to the highest level. The term half-life denotes the time in which the quantity being followed falls by half. High values mean slow decline, low ones rapid decline. One may read the IC50 as the point on the concentration scale where inhibition reaches its midpoint. The low end stands for greater potency, the high end for weaker potency. Take `CN(C)c1cc(NC(=O)CNC(C)(C)C)c(O)c2c1C[C@H]1C[C@H]3[C@H](N(C)C)C(O)=C(C(N)=O)C(=O)[C@@]3(O)C(O)=C1C2=O` [tigecycline]: the “Cox-1, Cox-2, Cox-4 mRNA expression relative 18S” value in [1] was “preferential increased mRNA expression of mitochondrial-encoded genes Cox-1, Cox-2, over the nuclear-encoded gene Cox-4”. In addition, the Tmax in data set [2] was roughly 0.5 h. Moreover, the half-life in [2] is roughly 4.5 h. Besides, the figures for the IC50 in the data set on solid tumour cell lines, in the data set on leukemia cell lines and with myeloma cell lines were greater than 10 µM, 5 to 8 µM and greater than 10 µM, respectively. Besides, the LD50 in [3] is greater than 10 µM; in data set [4] (more resistant group of patients, n=7, 48 hours) it was greater than 9 µM; in [4] (sensitive subset of leukemia patients, n=13, 48 hours), 5 µM. The “apoptosis, percentage of cells labeled by Annexin V” value in the data set on TEX cells [5] is on record as “time-dependent increases in apoptosis”. Moreover, the “inhibition of bacterial protein synthesis, fold greater than minocycline” value in data set [6] (relative to minocycline) was 3 fold. Further, in [6] (relative to tetracycline), the “inhibition of bacterial protein synthesis, fold greater than tetracycline” value is 20 fold. Moreover, in the data set with TEX cells [7], the ROS generation entry is reported as “no observed increase in ROS generation”. The toxicology findings result in data set [8] is “reversible anemia, thrombocytopenia, and leucopenia with a hypocellular bone marrow”.
